Patent US10835531B1, “Methods for predicting drug responsiveness in cancer patients” (Oncology Venture ApS, priority 2019, dated 2020)

Columns and labels:
[1] = tested on: patients with RCC, GIST, endometrial cancer, HCC or breast cancer; assay: Clinical response rate as a function of DRP cutoff, all five cohorts of Examples 2-6; type: in vivo, human
Excerpt: Gene expression data (Affymetrix) and clinical response data was obtained from 73 patients in the dovitinib arm. The DRP was applied to calculate a score for each patient (mean of genes in Table 2 minus mean of genes in Table 3). The score for each patient was compared to a reference population with the same diagnosis. For the reference population the dovitinib and sorafenib arms were combined (N=148). This allowed the calculation of a percentile score for each patient. Patients were grouped according to RECIST v1.1 response (centrally assessed) and included in FIG. 1.
Gene expression data (Affymetrix) and clinical response data was obtained from 14 patients. The DRP was applied to calculate a score for each patient (mean of genes in Table 2 minus mean of genes in Table 3). The score for each patient was compared to a reference population with the same diagnosis. For the reference population public data sets were downloaded from the GEO database (GSE20708, GSE17743, GSE8167, N=83). This allowed the calculation of a percentile score for each patient. Patients were grouped according to RECIST v1.1 response (locally assessed, no central assessment) and included in FIG. 1.
Gene expression data (Affymetrix) and clinical response data was obtained from 29 patients. The DRP was applied to calculate a score for each patient (mean of genes in Table 2 minus mean of genes in Table 3). The score for each patient was compared to a reference population with the same diagnosis. For the reference population a public data set was downloaded from the GEO database (GSE17025, N=91). This allowed the calculation of a percentile score for each patient. Patients were grouped according to RECIST v1.1 response (central assessment) and included in FIG. 1.
Gene expression data (Affymetrix) and clinical response data was obtained from 6 patients in the dovitinib arm. The DRP was applied to calculate a score for each patient (mean of genes in Table 2 minus mean of genes in Table 3). The score for each patient was compared to a reference population with the same diagnosis. […]

[2] = tested on: MDA-MB-231/ATCC; assay: NCI60 panel growth inhibition; type: cell-based; conditions: Homo sapiens; MDA-MB-231/ATCC cell line
Protocol: (§1) The human tumor cell lines of the cancer screening panel may be grown in RPMI 1640 medium containing 5% fetal bovine serum and 2 mM L-glutamine. Cells may be inoculated into 96 well microtiter plates in 100 μL at plating densities ranging from 5,000 to 40,000 cells/well depending on the doubling time of individual cell lines. After cell inoculation, the microtiter plates may be incubated at 37° C., 5% CO2, 95% air and 100% relative humidity for 24 hours prior to addition of experimental compounds. After 24 hours, two plates of each cell line may be fixed in situ with TCA, to represent a measurement of the cell population for each cell line at the time of compound addition (Tz). Experimental compounds may be solubilized in dimethyl sulfoxide at 400-fold the desired final maximum test concentration and stored frozen prior to use. At the time of compound (e.g., dovitinib or a pharmaceutically acceptable salt thereof) addition, an aliquot of frozen concentrate may be thawed and diluted to twice the desired final maximum test concentration with complete medium containing 50 μg/ml Gentamicin. Additional four, 10-fold or ½ log serial dilutions are made to provide a total of five concentrations plus control. […] Following compound (e.g., dovitinib or a pharmaceutically acceptable salt thereof) addition, the plates may be incubated for an additional 48 h at 37° C., 5% CO2, 95% air, and 100% relative humidity. For adherent cells, the assay may be terminated by the addition of cold TCA. Cells may be fixed in situ by the gentle addition of 50 μl of cold 50% (w/v) TCA (final concentration, 10% TCA) and incubated for 60 minutes at 4° C. The supernatant may be discarded, and the plates may be washed five times with tap water and air-dried. Sulforhodamine B (SRB) solution (100 μl) at 0.4% (w/v) in 1% acetic acid may be added to each well, and plates are incubated for 10 minutes at room temperature. After staining, unbound dye may be removed by washing five times with 1% acetic acid and the plates may be air-dried. […] Values are calculated for each of these three parameters if the level of activity is reached; however, if the effect is not reached or is exceeded, the value for that parameter is expressed as greater or less than the maximum or minimum concentration tested.

[3] = tested on: COLO 205; assay: NCI60 panel growth inhibition; type: cell-based; conditions: Homo sapiens; COLO 205 cell line
Protocol: as §1

[4] = tested on: SK-MEL-28; assay: NCI60 panel growth inhibition; type: cell-based; conditions: Homo sapiens; SK-MEL-28 cell line
Protocol: as §1

[5] = tested on: HCT-116; assay: NCI60 panel growth inhibition; type: cell-based; conditions: Homo sapiens; HCT-116 cell line
Protocol: as §1

[6] = tested on: SF-295; assay: NCI60 panel growth inhibition; type: cell-based; conditions: Homo sapiens; SF-295 cell line
Protocol: as §1

[7] = tested on: A549/ATCC; assay: NCI60 panel growth inhibition; type: cell-based; conditions: Homo sapiens; A549/ATCC cell line
Protocol: as §1

[8] = tested on: SF-268; assay: NCI60 panel growth inhibition; type: cell-based; conditions: Homo sapiens; SF-268 cell line
Protocol: as §1

[9] = tested on: T-47D; assay: NCI60 panel growth inhibition; type: cell-based; conditions: Homo sapiens, T47D; T-47D cell line
Protocol: as §1

[10] = tested on: NCl-H522; assay: NCI60 panel growth inhibition; type: cell-based; conditions: Homo sapiens; NCl-H522 cell line
Protocol: as §1

[11] = tested on: MDA-MB-468; assay: NCI60 panel growth inhibition; type: cell-based; conditions: Homo sapiens; MDA-MB-468 cell line
Protocol: as §1

[12] = tested on: HT29; assay: NCI60 panel growth inhibition; type: cell-based; conditions: Homo sapiens, HT-29; HT29 cell line
Protocol: as §1

[13] = tested on: CCRF-CEM; assay: NCI60 panel growth inhibition; type: cell-based; conditions: Homo sapiens; CCRF-CEM cell line
Protocol: as §1

[14] = tested on: MALME-3M; assay: NCI60 panel growth inhibition; type: cell-based; conditions: Homo sapiens; MALME-3M cell line
Protocol: as §1

[15] = tested on: SNB-75; assay: NCI60 panel growth inhibition; type: cell-based; conditions: Homo sapiens; SNB-75 cell line
Protocol: as §1

[16] = tested on: DU-145; assay: NCI60 panel growth inhibition; type: cell-based; conditions: Homo sapiens; DU-145 cell line
Protocol: as §1

[17] = tested on: MCF7; assay: NCI60 panel growth inhibition; type: cell-based; conditions: Homo sapiens; MCF7 cell line
Protocol: as §1

[18] = tested on: SK-MEL-5; assay: NCI60 panel growth inhibition; type: cell-based; conditions: Homo sapiens; SK-MEL-5 cell line
Protocol: as §1

[19] = tested on: BT-549; assay: NCI60 panel growth inhibition; type: cell-based; conditions: Homo sapiens; BT-549 cell line
Protocol: as §1

[20] = tested on: HCC-2998; assay: NCI60 panel growth inhibition; type: cell-based; conditions: Homo sapiens; HCC-2998 cell line
Protocol: as §1

[21] = tested on: KM12; assay: NCI60 panel growth inhibition; type: cell-based; conditions: Homo sapiens; KM12 cell line
Protocol: as §1

[22] = tested on: SK-OV-3; assay: NCI60 panel growth inhibition; type: cell-based; conditions: Homo sapiens; SK-OV-3 cell line
Protocol: as §1

[23] = tested on: CAKI-1; assay: NCI60 panel growth inhibition; type: cell-based; conditions: Homo sapiens; CAKI-1 cell line
Protocol: as §1

[24] = tested on: UACC-62; assay: NCI60 panel growth inhibition; type: cell-based; conditions: Homo sapiens; UACC-62 cell line
Protocol: as §1

[25] = tested on: NCl-H23; assay: NCI60 panel growth inhibition; type: cell-based; conditions: Homo sapiens; NCl-H23 cell line
Protocol: as §1

[26] = tested on: EKVX; assay: NCI60 panel growth inhibition; type: cell-based; conditions: Homo sapiens; EKVX cell line
Protocol: as §1

[27] = tested on: U251; assay: NCI60 panel growth inhibition; type: cell-based; conditions: Homo sapiens, U-251; U251 cell line
Protocol: as §1

[28] = tested on: HOP-62; assay: NCI60 panel growth inhibition; type: cell-based; conditions: Homo sapiens; HOP-62 cell line
Protocol: as §1

[29] = tested on: RPMI-8226; assay: NCI60 panel growth inhibition; type: cell-based; conditions: Homo sapiens; RPMI-8226 cell line
Protocol: as §1

[30] = tested on: SN12C; assay: NCI60 panel growth inhibition; type: cell-based; conditions: Homo sapiens; SN12C cell line
Protocol: as §1

[31] = tested on: SNB-19; assay: NCI60 panel growth inhibition; type: cell-based; conditions: Homo sapiens; SNB-19 cell line
Protocol: as §1

[32] = tested on: SW-620; assay: NCI60 panel growth inhibition; type: cell-based; conditions: Homo sapiens; SW-620 cell line
Protocol: as §1

[33] = tested on: NCl-H322M; assay: NCI60 panel growth inhibition; type: cell-based; conditions: Homo sapiens; NCl-H322M cell line
Protocol: as §1

[34] = tested on: RXF 393; assay: NCI60 panel growth inhibition; type: cell-based; conditions: Homo sapiens; RXF 393 cell line
Protocol: as §1

[35] = tested on: HS 578T; assay: NCI60 panel growth inhibition; type: cell-based; conditions: Homo sapiens; HS 578T cell line
Protocol: as §1

[36] = tested on: OVCAR-3; assay: NCI60 panel growth inhibition; type: cell-based; conditions: Homo sapiens; OVCAR-3 cell line
Protocol: as §1

[37] = tested on: NCl/ADR-RES; assay: NCI60 panel growth inhibition; type: cell-based; conditions: Homo sapiens; NCl/ADR-RES cell line
Protocol: as §1

[38] = tested on: SR; assay: NCI60 panel growth inhibition; type: cell-based; conditions: Homo sapiens; SR cell line
Protocol: as §1

[39] = tested on: SK-MEL-2; assay: NCI60 panel growth inhibition; type: cell-based; conditions: Homo sapiens; SK-MEL-2 cell line
Protocol: as §1

[40] = tested on: TK-10; assay: NCI60 panel growth inhibition; type: cell-based; conditions: Homo sapiens; TK-10 cell line
Protocol: as §1

[41] = tested on: MDA-MB-435; assay: NCI60 panel growth inhibition; type: cell-based; conditions: Homo sapiens; MDA-MB-435 cell line
Protocol: as §1

[42] = tested on: LOX IMVI; assay: NCI60 panel growth inhibition; type: cell-based; conditions: Homo sapiens; LOX IMVI cell line
Protocol: as §1

[43] = tested on: HOP-92; assay: NCI60 panel growth inhibition; type: cell-based; conditions: Homo sapiens; HOP-92 cell line
Protocol: as §1

[44] = tested on: HCT-15; assay: NCI60 panel growth inhibition; type: cell-based; conditions: Homo sapiens; HCT-15 cell line
Protocol: as §1

[45] = tested on: NCl-H226; assay: NCI60 panel growth inhibition; type: cell-based; conditions: Homo sapiens; NCl-H226 cell line
Protocol: as §1

[46] = tested on: K-562; assay: NCI60 panel growth inhibition; type: cell-based; conditions: Homo sapiens, K562; K-562 cell line
Protocol: as §1

[47] = tested on: IGROV1; assay: NCI60 panel growth inhibition; type: cell-based; conditions: Homo sapiens, IGROV-1; IGROV1 cell line
Protocol: as §1

[48] = tested on: SF-539; assay: NCI60 panel growth inhibition; type: cell-based; conditions: Homo sapiens; SF-539 cell line
Protocol: as §1

[49] = tested on: OVCAR-8; assay: NCI60 panel growth inhibition; type: cell-based; conditions: Homo sapiens; OVCAR-8 cell line
Protocol: as §1

[50] = tested on: M14; assay: NCI60 panel growth inhibition; type: cell-based; conditions: Homo sapiens; M14 cell line
Protocol: as §1

[51] = tested on: 786-0; assay: NCI60 panel growth inhibition; type: cell-based; conditions: Homo sapiens; 786-0 cell line
Protocol: as §1

[52] = tested on: NCl-H460; assay: NCI60 panel growth inhibition; type: cell-based; conditions: Homo sapiens; NCl-H460 cell line
Protocol: as §1

[53] = tested on: MOLT-4; assay: NCI60 panel growth inhibition; type: cell-based; conditions: Homo sapiens; MOLT-4 cell line
Protocol: as §1

[54] = tested on: UACC-257; assay: NCI60 panel growth inhibition; type: cell-based; conditions: Homo sapiens; UACC-257 cell line
Protocol: as §1

[55] = tested on: ACHN; assay: NCI60 panel growth inhibition; type: cell-based; conditions: Homo sapiens; ACHN cell line
Protocol: as §1

[56] = tested on: OVCAR-4; assay: NCI60 panel growth inhibition; type: cell-based; conditions: Homo sapiens; OVCAR-4 cell line
Protocol: as §1

[57] = tested on: UO-31; assay: NCI60 panel growth inhibition; type: cell-based; conditions: Homo sapiens; UO-31 cell line
Protocol: as §1

[58] = tested on: PC-3; assay: NCI60 panel growth inhibition; type: cell-based; conditions: Homo sapiens; PC-3 cell line
Protocol: as §1

[59] = tested on: OVCAR-5; assay: NCI60 panel growth inhibition; type: cell-based; conditions: Homo sapiens; OVCAR-5 cell line
Protocol: as §1

[60] = tested on: A498; assay: NCI60 panel growth inhibition; type: cell-based; conditions: Homo sapiens; A498 cell line
Protocol: as §1

[61] = tested on: HL-60(TB); assay: NCI60 panel growth inhibition; type: cell-based; conditions: Homo sapiens; HL-60(TB) cell line
Protocol: The human tumor cell lines of the cancer screening panel may be grown in RPMI 1640 medium containing 5% fetal bovine serum and 2 mM L-glutamine. Cells may be inoculated into 96 well microtiter plates in 100 μL at plating densities ranging from 5,000 to 40,000 cells/well depending on the doubling time of individual cell lines. After cell inoculation, the microtiter plates may be incubated at 37° C., 5% CO2, 95% air and 100% relative humidity for 24 hours prior to addition of experimental compounds. After 24 hours, two plates of each cell line may be fixed in situ with TCA, to represent a measurement of the cell population for each cell line at the time of compound addition (Tz). Experimental compounds may be solubilized in dimethyl sulfoxide at 400-fold the desired final maximum test concentration and stored frozen prior to use. […] Bound stain may be subsequently solubilized with 10 mM trizma base, and the absorbance may be read on an automated plate reader at a wavelength of 515 nm. […] Using the seven absorbance measurements [time zero, (Tz), control growth, (C), and test growth in the presence of compound (e.g., dovitinib or a pharmaceutically acceptable salt thereof) at the five concentration levels (Ti)], the percentage growth may be calculated at each of the compound concentrations levels. […] The compound concentration resulting in total growth inhibition (TGI) is calculated from Ti=Tz. […]

SMILES: CN1CCN(c2ccc3nc(-c4c(N)c5c(F)cccc5[nH]c4=O)[nH]c3c2)CC1 [dovitinib, 4-amino-5-fluoro-3-[6-(4-methylpiperazin-1-yl)-1H-benzimidazol-2-yl]-1H-quinolin-2-one]
- overall response rate (ORR=CR+PR) ([1]; all five cohorts from Examples 2-6, patients at DRP cutoff of 50): 26%
- overall response rate (ORR=CR+PR) ([1]; all five cohorts from Examples 2-6, patients at DRP cutoff of 80): 35%
- average overall response rate (ORR=CR+PR) ([1]; all five cohorts from Examples 2-6, without the DRP (breast cohort received dovitinib plus fulvestrant)): 16%
- GI50 [2]: 2340 nM
- GI50 [3]: 2240 nM
- GI50 [4]: 1480 nM
- GI50 [5]: 417 nM
- GI50 [6]: 6030 nM
- GI50 [7]: 562 nM
- GI50 [8]: 2190 nM
- GI50 [9]: 10000 nM
- GI50 [10]: 3160 nM
- GI50 [11]: 2570 nM
- GI50 [12]: 1410 nM
- GI50 [13]: 589 nM
- GI50 [14]: 490 nM
- GI50 [15]: 977 nM
- GI50 [16]: 1150 nM
- GI50 [17]: 1170 nM
- GI50 [18]: 1780 nM
- GI50 [19]: 1050 nM
- GI50 [20]: 1320 nM
- GI50 [21]: 41.7 nM
- GI50 [22]: 513 nM
- GI50 [23]: 468 nM
- GI50 [24]: 3630 nM
- GI50 [25]: 2450 nM
- GI50 [26]: 7590 nM
- GI50 [27]: 550 nM
- GI50 [28]: 1450 nM
- GI50 [29]: 1480 nM
- GI50 [30]: 676 nM
- GI50 [31]: 2630 nM
- GI50 [32]: 550 nM
- GI50 [33]: 759 nM
- GI50 [34]: 219 nM
- GI50 [35]: 977 nM
- GI50 [36]: 6760 nM
- GI50 [37]: 2690 nM
- GI50 [38]: 447 nM
- GI50 [39]: 891 nM
- GI50 [40]: 7760 nM
- GI50 [41]: 1070 nM
- GI50 [42]: 871 nM
- GI50 [43]: 355 nM
- GI50 [44]: 427 nM
- GI50 [45]: 355 nM
- GI50 [46]: 550 nM
- GI50 [47]: 251 nM
- GI50 [48]: 427 nM
- GI50 [49]: 1450 nM
- GI50 [50]: 389 nM
- GI50 [51]: 724 nM
- GI50 [52]: 468 nM
- GI50 [53]: 331 nM
- GI50 [54]: 3390 nM
- GI50 [55]: 331 nM
- GI50 [56]: 575 nM
- GI50 [57]: 219 nM
- GI50 [58]: 1120 nM
- GI50 [59]: 1780 nM
- GI50 [60]: 135 nM
- GI50 [61]: 1070 nM
